Data as given in paper PMC7913927, “Leishmanicidal Activity of Betulin Derivatives in Leishmania amazonensis; Effect on Plasma and Mitochondrial Membrane Potential, and Macrophage Nitric Oxide and Superoxide Production” (Microorganisms, 2021).
“Also recorded” adds a separate entry of the source.

Columns and labels:
[1] = test system: L. (L.) braziliensis MHOM/BR/LTB300; set-up: method as in PMID 25240731; conditions: cited from earlier work
[2] = test system: L. (L.) amazonensis LTB0016, VE98MR and VE2000MM promastigotes; test: Mitochondrial membrane potential (ΔΨm), JC-1 fluorescence; type: cell-based, Leishmania amazonensis; conditions: promastigotes of LTB0016, VE98MR, 48 h, 18: 1 and 2 µM, 22: 2 and 4 µM, vs untreated
Experimental: To evaluate the mitochondrial membrane potential (ΔΨm), the fluorescent compound JC-1 (5,5′,6,6′-tetrachloro-1,1′,3,3′-tetraethylbenzimidazolocarbocyanine iodide) was used, according to a modification of a previously described method. Exponential phase promastigotes were suspended at 26 °C, in RPMIc without phenol red, in a volume of 1 mL, at a cell density of 1 × 10^7 parasites mL^−1. The parasites were left to grow for 48 h, in the presence and absence of the test compounds. Then, after centrifuging (500× g for 10 min) and washing the parasites twice with PBS, they were resuspended in 200 µL of HEPES-G, and placed in 96-well plates. […] Finally, fluorescence was measured in a Victor^2 Wallac spectrofluorometer (Perkin Elmer, Turku, Finland) at the appropriate wavelengths (ex: 485 nm/em: 535 and 580 nm). As the mitochondrial membrane is polarized, JC-1 produces intra-mitochondrial aggregates “J-aggregates” that emit a red fluorescence (λ 590 nm). Mitochondrial membrane depolarization induces JC-1 monomeric conformation in the cytoplasm, then the fluorescence turns green (λ 530 nm). The red/green ratio of fluorescence then is an indirect measurement of the mitochondrial membrane potential. A more depolarized mitochondria means a lower ratio of red/green fluorescence.
Relative fluorescence (RF) was calculated, where RF = 580 nm fluorescence/535 nm fluorescence (red/green). […]

[3] = test system: L. (L.) amazonensis LTB0016, VE98MR and VE2000MM promastigotes; test: Plasma membrane potential (ΔΨp), bisoxonol fluorescence; type: cell-based, Leishmania amazonensis; conditions: promastigotes of LTB0016, VE98MR, VE2000MM; 15 min; 18: 1 and 2 µM; vs untreated
Experimental: To evaluate the plasma membrane potential (ΔΨp), the fluorescent compound, bisoxonol, bis[1,3-diethylthiobarbituric acid] trimethine oxonol, was used, as well as a method optimized by Padrón-Nieves et al.. Initially, calibration curves for each strain, using increasing concentrations of KCl (0.5 to 75 mM), were performed in the late log growth phase Leishmania promastigotes in the presence of the potassium ionophore valinomycin. By this procedure, fluorescence values could be transformed into millivolts (mV), applying the Nernst equation, ΔΨp = −59.4 log(120/[KCl]). […] After 10 min of incubation in the dark, fluorescence was measured in a Victor^2 Wallac spectrofluorometer (Perkin Elmer, Turku, Finland), using the appropriate wavelengths (ex: 540 nm/em: 580 nm). […] Once the corresponding calibration curve for each strain was obtained, the effect of compounds on the ΔΨp was evaluated. […] After 10 min of incubation in the dark, fluorescence was measured, using the appropriate wavelengths (ex: 540 nm/em: 580 nm). […] To transform the fluorescence values in millivolts (mV), calibration curves were prepared using increasing concentrations of KCl (0.5, 1.15, 2.5, 5, 10, 20, 40, and 75 mM). […]

For `C=C(C)C1CCC2(C=NO)CCC3(C)C(CCC4C5(C)CCC(=NO)C(C)(C)C5CCC43C)C12` (stereo not drawn) [Compound 18], the “inhibition of parasite migration” value [1] is listed as “inhibited parasite migration at nano and picomolar concentrations”, the “Effect on mitochondrial membrane potential (ΔΨm)” value [2] is listed as “significantly depolarized; also recorded: depolarizes ΔΨm in a concentration-dependent way” and the “Effect on plasma membrane potential (ΔΨp)” value [3] is listed as “significantly depolarized; also recorded: significantly depolarize the ΔΨp in all evaluated strains; also recorded: the collapse of the plasma membrane potential (ΔΨp) in a concentration-dependent way”.
